According to publication PMC4887995, “Small molecule dual-inhibitors of TRPV4 and TRPA1 for attenuation of inflammation and pain” (Scientific Reports, 2016):
“Also recorded” adds a separate entry of the source.

Key:
[1] = tested on: formalin-evoked trigeminal irritant pain; experiment: Trigeminal formalin irritant pain model, WT mice; type: in vivo, mouse; conditions: 10 mg/kg i.p.; for pain behavior, delayed (late neural) phase: 15 min before 4% formalin, 15–45 min
Description: Figure 7 16-8 and 16-19 effectively attenuate formalin-evoked trigeminal irritant pain. (A) Time-course of nocifensive behavior in WT mice following whisker-pad injection of 4% formalin. The mice were pre-injected (i.p., 10 mg/kg; 15 min before formalin) with GSK205, 16-8 or 16-19. Note effective reduction of nocifensive behavior in the late “neural” phase by compounds 16-8, 16-19, not by GSK205. (B) Cumulative response binned into 3 phases: acute phase (0–5 min), interphase (5–15 min), and late “neural” phase (15–45 min). […] (C) As in (A), but also including Trpv4^−/− mice. Compounds were applied i.p. 15 min before formalin challenge, at 10 mg/kg except established TRPA1 blocker, A967079 (25 mg/kg). Previously-established attenuated nocifensive behavior in early and late phase in Trpv4^−/− mice was recapped, which was reduced further by TRPA1 blocker, A967079. (D) As in (B), plus inclusion of Trpv4^−/− mice. Robust effects of TRPA1-blocker, A967079, were mimicked equi-potently by 16-8 and 16-19 for early phase, and by 16-8 for late phase, partially by 16-19 for late phase. (A,C) show averaged behavioral metrics per time-point, bars in (B,D) represent mean ± SEM; for (D) ^*P < 0.05; ^#P < 0.005, one-way ANOVA; for all panels n = 5–8 mice/group. Implementation of this model was conducted as described previously. Video-taped nocifensive behavior was assessed by investigators blinded to genotype and treatment.

[2] = Compound concentration in organs and plasma by LC-MS/MS; type: in vivo, mouse; conditions: 10 mg/kg i.p.
Description: Mice were treated with 10 mg/kg i.p. of the respective inhibitor. Post-euthanasia harvested tissue was frozen in liquid nitrogen and stored at −80 °C for further analysis.
Frozen tissue samples were partially thawed and cut into 1 mm slices, 5–15 mg tissue, 2-fold excess water (mass/vol.), 6-fold excess acetonitrile (16-… compounds) or methanol (GSK205) containing appropriate amount of internal standard, and 2.5 mm zirconia/silica bead (Biospec Products Inc.) were added to 500- μL polypropylene (PP) conical tube, homogenized in a Fast-Prep apparatus (Thermo-Savant) at speed “4” for 20 sec at room temp, and centrifuged at 13,600 g for 5 min at room temp. Depending on the expected concentration range of the measured compound, the supernatant was diluted 1/4–1/20 (in Mobile phase A, see below) and placed in autosampler for LC-MS/MS analysis.
The LC-MS/MS assay for 16-… compounds and GSK205 was developed on an Agilent 1200 series LC system interfaced with Applied Biosystems API 5500QTrap, a hybrid triple quadruple-linear trap MS/MS spectrometer. Analyst (version 1.6.1) software was used for mass parameters tuning, data acquisition, and quantification. LC column: 3 × 4 mm RP C18 (Phenomenex, AJ0-4287) was operated at 35 °C. Mobile phase A: 0.1% formic acid, 2% acetonitrile, in LC/MS-grade water; mobile phase B: acetonitrile; flow rate: 1 mL/min, 1:1 MS/MS:waste split. Run time was 4 min. Diverter valve was used to send flow to MS/MS only between 1.2 and 2.5 min. The elution gradient was: 0–0.5 min, 1%B; 0.5–1.2 min, 1–95%B; 1.2–1.5 min, 95%B; 1.5–1.6 min, 95–1%B. Autosampler was operated at 4 °C; injection volume was kept at 10–50 μL. Electrospray ionization (ESI) source parameters were: positive ionization mode, curtain gas flow = 30, ionization potential = 5500 V, temperature = 500 °C, nebulizing gas 1 flow = 30, nebulizing gas 2 = 30, declustering potential = 20 V. 16-… compounds and GSK205 were individually infused as 100 nM solutions in 50%A/50%B at 10 μL/min flow rate and parameters optimized to provide maximal ion count for “parent” and collision-produced (“daughter”) MS/MS ions. Parent/daughter quantifier [qualifier] ions utilized: GSK205 (401.1/280[370]), 16-8 (400.1/279.1[91.1], 16-16 (387.1/280[105]), 16-18 (415.2/280[370], 16-19 (414.1/279.2[91.1]. Standard (analyte of interest)/internal standard pairs utilized: GSK205/16-16, 16-8/16-16, 16-18/GSK205, 16-19/16-8.
Calibration samples (n = 6) were prepared by adding pure standard of the measured compound to tissue homogenate (tissue + 2-fold excess water, mass/vol) in the appropriate range needed for the particular dosing regime. Organs studied were analyzed alongside the study samples. […] Peak integration, calibration, and quantification was performed within Analyst software. […]

TRPV2 = target: T1, TRPV2 (Mus musculus, UniProt Q9WTR1); experiment: Ca++ imaging in N2a cells over-expressing TRPV2 (hypotonicity); conditions: 5 μM
T1 sequence (Q9WTR1 1-756): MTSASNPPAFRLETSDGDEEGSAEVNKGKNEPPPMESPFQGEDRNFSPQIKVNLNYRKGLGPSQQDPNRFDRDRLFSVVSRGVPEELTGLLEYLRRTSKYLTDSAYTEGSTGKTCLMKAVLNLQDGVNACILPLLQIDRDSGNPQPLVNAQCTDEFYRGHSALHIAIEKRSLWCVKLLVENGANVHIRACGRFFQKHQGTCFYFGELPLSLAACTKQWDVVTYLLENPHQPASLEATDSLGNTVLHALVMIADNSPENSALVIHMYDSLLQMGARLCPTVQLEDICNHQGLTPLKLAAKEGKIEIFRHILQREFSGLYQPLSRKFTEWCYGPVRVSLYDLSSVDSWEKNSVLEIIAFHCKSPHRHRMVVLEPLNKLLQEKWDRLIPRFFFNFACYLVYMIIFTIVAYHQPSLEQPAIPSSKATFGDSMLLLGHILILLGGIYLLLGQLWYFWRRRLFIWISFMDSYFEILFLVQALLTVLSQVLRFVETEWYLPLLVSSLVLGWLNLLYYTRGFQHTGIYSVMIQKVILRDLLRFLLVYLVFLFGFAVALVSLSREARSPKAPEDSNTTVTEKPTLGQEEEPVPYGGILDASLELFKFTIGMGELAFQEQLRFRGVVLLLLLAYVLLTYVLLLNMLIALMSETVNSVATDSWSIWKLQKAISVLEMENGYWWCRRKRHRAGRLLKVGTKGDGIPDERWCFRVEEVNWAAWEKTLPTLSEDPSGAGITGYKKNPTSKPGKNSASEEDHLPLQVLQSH
Description: (A) Specificity vs TRPV1-3. […] Mean±SEM is shown, ≥100 cells per condition. […] Plot generated from averaged peak ∆Ca^++ concentration of ≥75 cells per data-point.
N2a cells were used for directed expression of TRP ion channels as described previously[13]. […] All other channels were native channels from mouse, eGFP was co-transfected. […] Ca^++ imaging was performed as described previously[13][14][34].

Compound | diminishing of pain behavior, delayed phase [1] [%] | pain behavior, delayed (late neural) phase [1] | concentration in fat and pancreas ([2]; after one hour) | inhibition of TRPV2 (TRPV2) | concentration in non-nervous tissue, especially liver and kidney, comparison of compounds ([2]; 1 h) | concentration at 6 h time-point compared to 1 h time-point ([2]; several organs) | concentration at 24 h time-point ([2]; several organs)
CN(CCc1ccc(Nc2nc(-c3ccccc3)cs2)cc1)Cc1ccccc1 [16-8] | > 50 | significant attenuation; also recorded: significant reduction | above its IC50 | did not inhibit |  |  | 
CCN(CCc1ccc(Nc2nc(-c3ccccc3)cs2)cc1)Cc1ccccc1 [16-19] |  | robust effect; also recorded: significant reduction |  | did not inhibit | higher concentrations | 10-20 fold | lower than at the 6 h but higher than at the 1 h time-point
